The values below come from PubChem BioAssay AID1259407 (Chemical Carcinogenesis Research Information System (CCRIS), 2018).

This data set has as its system CCRIS mutagenicity, Ames/micronucleus/aberration tests. Description: CCRIS mutagenicity studies.
Where [1] appears, read: Test System: AMES SALMONELLA TYPHIMURIUM, Strain/Indicator: TA98, Metabolic Activation: NONE, Method: PREINCUBATION
Where [2] appears, read: Test System: AMES SALMONELLA TYPHIMURIUM, Strain/Indicator: TA100, Metabolic Activation: NONE, Method: PREINCUBATION

The source made the active and inactive calls. The rule behind the calls is not given here.

With `CC(=O)CC(=O)Nc1ccccc1`, the mutagenic call by setting is: (End Point: In vitro chromosomal aberrations, Test System: Chinese hamster lung (CHL/IU) cells, Metabolic Activation: Rat, Liver, S9, Phenobarbital and 5,6-benzoflavone) “inactive; negative”; (Test System: AMES SALMONELLA TYPHIMURIUM, Strain/Indicator: TA97, Metabolic Activation: HAMSTER, LIVER, S-9, AROCLOR 1254 (10%), Method: PREINCUBATION) “inactive; negative”; (Test System: AMES SALMONELLA TYPHIMURIUM, Strain/Indicator: TA97, Metabolic Activation: HAMSTER, LIVER, S-9, AROCLOR 1254 (30%), Method: PREINCUBATION) “inactive; negative”; (Test System: AMES SALMONELLA TYPHIMURIUM, Strain/Indicator: TA97, Metabolic Activation: NONE, Method: PREINCUBATION) “inactive; negative”; (Test System: AMES SALMONELLA TYPHIMURIUM, Strain/Indicator: TA97, Metabolic Activation: RAT, LIVER, S-9, AROCLOR 1254 (10%), Method: PREINCUBATION) “inactive; negative”; (Test System: AMES SALMONELLA TYPHIMURIUM, Strain/Indicator: TA97, Metabolic Activation: RAT, LIVER, S-9, AROCLOR 1254 (30%), Method: PREINCUBATION) “inactive; negative”. In addition, the mutagenic call (Test System: AMES SALMONELLA TYPHIMURIUM, Strain/Indicator: TA98, Metabolic Activation: HAMSTER, LIVER, S-9, AROCLOR 1254 (10%), Method: PREINCUBATION) is “inactive; negative”; the mutagenic call (Test System: AMES SALMONELLA TYPHIMURIUM, Strain/Indicator: TA98, Metabolic Activation: HAMSTER, LIVER, S-9, AROCLOR 1254 (30%), Method: PREINCUBATION) is “inactive; negative”; the mutagenic call under setting [1] was “inactive; negative”; the mutagenic call (Test System: AMES SALMONELLA TYPHIMURIUM, Strain/Indicator: TA98, Metabolic Activation: RAT, LIVER, S-9, AROCLOR 1254 (10%), Method: PREINCUBATION) is “inactive; negative”; the mutagenic call (Test System: AMES SALMONELLA TYPHIMURIUM, Strain/Indicator: TA98, Metabolic Activation: RAT, LIVER, S-9, AROCLOR 1254 (30%), Method: PREINCUBATION) is “inactive; negative”; the mutagenic call (Test System: AMES SALMONELLA TYPHIMURIUM, Strain/Indicator: TA100, Metabolic Activation: HAMSTER, LIVER, S-9, AROCLOR 1254 (10%), Method: PREINCUBATION) was “inactive; negative”. For the same compound, the mutagenic call was “inactive; negative” (Test System: AMES SALMONELLA TYPHIMURIUM, Strain/Indicator: TA100, Metabolic Activation: HAMSTER, LIVER, S-9, AROCLOR 1254 (30%), Method: PREINCUBATION); “inactive; negative” under setting [2]; “inactive; negative” (Test System: AMES SALMONELLA TYPHIMURIUM, Strain/Indicator: TA100, Metabolic Activation: RAT, LIVER, S-9, AROCLOR 1254 (10%), Method: PREINCUBATION); “inactive; negative” (Test System: AMES SALMONELLA TYPHIMURIUM, Strain/Indicator: TA100, Metabolic Activation: RAT, LIVER, S-9, AROCLOR 1254 (30%), Method: PREINCUBATION); “inactive; negative” (Test System: AMES SALMONELLA TYPHIMURIUM, Strain/Indicator: TA1535, Metabolic Activation: HAMSTER, LIVER, S-9, AROCLOR 1254 (10%), Method: PREINCUBATION); “inactive; negative” (Test System: AMES SALMONELLA TYPHIMURIUM, Strain/Indicator: TA1535, Metabolic Activation: HAMSTER, LIVER, S-9, AROCLOR 1254 (30%), Method: PREINCUBATION). Besides, the mutagenic call was “inactive; negative” (Test System: AMES SALMONELLA TYPHIMURIUM, Strain/Indicator: TA1535, Metabolic Activation: NONE, Method: PREINCUBATION); “inactive; negative” (Test System: AMES SALMONELLA TYPHIMURIUM, Strain/Indicator: TA1535, Metabolic Activation: RAT, LIVER, S-9, AROCLOR 1254 (10%), Method: PREINCUBATION); “inactive; negative” (Test System: AMES SALMONELLA TYPHIMURIUM, Strain/Indicator: TA1535, Metabolic Activation: RAT, LIVER, S-9, AROCLOR 1254 (30%), Method: PREINCUBATION); “inactive; negative” (Test System: Ames Salmonella typhimurium, Strain/Indicator: TA98, Metabolic Activation: None, Method: Preincubation); “inactive; negative” (Test System: Ames Salmonella typhimurium, Strain/Indicator: TA98, Metabolic Activation: Rat, Liver, S9, Sodium phenobarbital and 5,6-benzoflavone (10%), Method: Preincubation); “inactive; negative” (Test System: Ames Salmonella typhimurium, Strain/Indicator: TA100, Metabolic Activation: None, Method: Preincubation). The mutagenic call runs as follows: (Test System: Ames Salmonella typhimurium, Strain/Indicator: TA100, Metabolic Activation: Rat, Liver, S9, Sodium phenobarbital and 5,6-benzoflavone (10%), Method: Preincubation) “inactive; negative”; (Test System: Ames Salmonella typhimurium, Strain/Indicator: TA1535, Metabolic Activation: None, Method: Preincubation) “inactive; negative”; (Test System: Ames Salmonella typhimurium, Strain/Indicator: TA1535, Metabolic Activation: Rat, Liver, S9, Sodium phenobarbital and 5,6-benzoflavone (10%), Method: Preincubation) “inactive; negative”; (Test System: Ames Salmonella typhimurium, Strain/Indicator: TA1537, Metabolic Activation: None, Method: Preincubation) “inactive; negative”; (Test System: Ames Salmonella typhimurium, Strain/Indicator: TA1537, Metabolic Activation: Rat, Liver, S9, Sodium phenobarbital and 5,6-benzoflavone (10%), Method: Preincubation) “inactive; negative”; (Test System: E. coli, Strain/Indicator: WP2uvrA/pKM101, Metabolic Activation: None, Method: Preincubation) “active; positive”. In addition, the mutagenic call (Test System: E. coli, Strain/Indicator: WP2uvrA/pKM101, Metabolic Activation: Rat, Liver, S9, Sodium phenobarbital and 5,6-benzoflavone (10%), Method: Preincubation) is “active; positive”.
With `CC12OOC1(C)c1ccccc1O2` (centres undefined), the mutagenic call under setting [2] is “active; positive” and the mutagenic call (Test System: AMES SALMONELLA TYPHIMURIUM, Strain/Indicator: TA2638, Metabolic Activation: NONE, Method: PREINCUBATION) was “inactive; negative”.
For the compound `CC[n+]1c2ccccc2nc2ccccc21`, the mutagenic call is “inactive; negative” (Test System: AMES SALMONELLA TYPHIMURIUM, Strain/Indicator: TA98, Metabolic Activation: NONE, Method: STANDARD PLATE); “active; positive” (Test System: AMES SALMONELLA TYPHIMURIUM, Strain/Indicator: TA98, Metabolic Activation: RAT, LIVER, S-9, AROCLOR 1254, Method: STANDARD PLATE); “inactive; negative” (Test System: AMES SALMONELLA TYPHIMURIUM, Strain/Indicator: TA100, Metabolic Activation: NONE, Method: STANDARD PLATE); “inactive; negative” (Test System: AMES SALMONELLA TYPHIMURIUM, Strain/Indicator: TA100, Metabolic Activation: RAT, LIVER, S-9, AROCLOR 1254, Method: STANDARD PLATE); “inactive; negative” (Test System: AMES SALMONELLA TYPHIMURIUM, Strain/Indicator: TA102, Metabolic Activation: NONE, Method: STANDARD PLATE); “active; positive” (Test System: AMES SALMONELLA TYPHIMURIUM, Strain/Indicator: TA1537, Metabolic Activation: RAT, LIVER, S-9, AROCLOR 1254, Method: STANDARD PLATE). Besides, the mutagenic call by setting is: (Test System: AMES SALMONELLA TYPHIMURIUM, Strain/Indicator: TA1538, Metabolic Activation: NONE, Method: STANDARD PLATE) “inactive; negative”; (Test System: AMES SALMONELLA TYPHIMURIUM, Strain/Indicator: TA1538, Metabolic Activation: RAT, LIVER, S-9, AROCLOR 1254, Method: STANDARD PLATE) “inactive; negative”; (Test System: AMES SALMONELLA TYPHIMURIUM, Strain/Indicator: TA2638, Metabolic Activation: NONE, Method: STANDARD PLATE) “inactive; negative”; (Test System: E. COLI, Strain/Indicator: WP2 (PKM101), Metabolic Activation: NONE, Method: STANDARD PLATE) “inactive; negative”; (Test System: E. COLI, Strain/Indicator: WP2 UVRA (PKM101), Metabolic Activation: NONE, Method: STANDARD PLATE) “active; positive”.
As to `O=C1c2ccccc2C(=O)c2c1cc(O[C@@H]1O[C@H](CO[C@@H]3OC[C@@H](O)[C@H](O)[C@H]3O)[C@@H](O)[C@H](O)[C@H]1O)c(CO)c2O`, the mutagenic call was “inactive; negative” under setting [1]; “inactive; negative” (Test System: AMES SALMONELLA TYPHIMURIUM, Strain/Indicator: TA98, Metabolic Activation: RAT, LIVER, S-9, PCB, Method: PREINCUBATION); “active; positive” under setting [2]; “inactive; negative” (Test System: AMES SALMONELLA TYPHIMURIUM, Strain/Indicator: TA100, Metabolic Activation: RAT, LIVER, S-9, PCB, Method: PREINCUBATION); “active; positive” (Test System: UDS RODENT HEPATOCYTES, Strain/Indicator: THY INCORP, Metabolic Activation: NONE).
